Counter-ions that a name gives are not always drawn.
Columns and labels:
Conditions in all cases: 72 h
HepG2 [1] = assay: drug sensitivity score (DSS) for viability; higher = more toxic; extreme values may be limits of the assay
U2OS [2] = assay: as above
Vero E6 [3] = assay: as above
Caco-2 [4] = assay: as above
Calu-3 [5] = assay: as above
HepG2 [6] = assay: cell viability relative to DMSO; higher = less toxic
U2OS [7] = assay: as above
Vero E6 [8] = assay: as above
Caco-2 [9] = assay: as above
Calu-3 [10] = assay: as above
HepG2 [11] = assay: relative viability EC50 (midpoint between 100% and the lowest measured viability); higher = less toxic
U2OS [12] = assay: as above
Vero E6 [13] = assay: as above
Caco-2 [14] = assay: as above
Calu-3 [15] = assay: as above

Structure (SMILES) | drug sensitivity score (HepG2 [1]) | drug sensitivity score (U2OS [2]) | drug sensitivity score (Vero E6 [3]) | drug sensitivity score (Caco-2 [4]) | drug sensitivity score (Calu-3 [5]) | cell viability (HepG2 [6]; 1 nM) | cell viability (HepG2 [6]; 10 nM) | cell viability (HepG2 [6]; 100 nM) | cell viability (HepG2 [6]; 1000 nM) | cell viability (HepG2 [6]; 10000 nM) | cell viability (U2OS [7]; 1 nM) | cell viability (U2OS [7]; 10 nM) | cell viability (U2OS [7]; 100 nM) | cell viability (U2OS [7]; 1000 nM) | cell viability (U2OS [7]; 10000 nM) | cell viability (Vero E6 [8]; 1 nM) | cell viability (Vero E6 [8]; 10 nM) | cell viability (Vero E6 [8]; 100 nM) | cell viability (Vero E6 [8]; 1000 nM) | cell viability (Vero E6 [8]; 10000 nM) | cell viability (Caco-2 [9]; 1 nM) | cell viability (Caco-2 [9]; 10 nM) | cell viability (Caco-2 [9]; 100 nM) | cell viability (Caco-2 [9]; 1000 nM) | cell viability (Caco-2 [9]; 10000 nM) | cell viability (Calu-3 [10]; 1 nM) | cell viability (Calu-3 [10]; 10 nM) | cell viability (Calu-3 [10]; 100 nM) | cell viability (Calu-3 [10]; 1000 nM) | cell viability (Calu-3 [10]; 10000 nM) | relative viability EC50 (HepG2 [11]) | relative viability EC50 (U2OS [12]) | relative viability EC50 (Vero E6 [13]) | relative viability EC50 (Caco-2 [14]) | relative viability EC50 (Calu-3 [15])
O=C(O)c1ccc2c(c1)nc(Nc1cccc(Cl)c1)c1ccncc12 [CX-4945] | 0.7 | 1.1 | 0.4 | 0 | 0.3 | 106% | 109% | 92% | 102% | 77% | 102% | 101% | 101% | 88.4% | 84.8% | 101% | 98.4% | 101% | 95.1% | 86.5% | 98.7% | 95.2% | 92% | 95.6% | 97.7% | 111% | 103% | 111% | 101% | 83.2% | > 10 µM | > 10 µM | > 10 µM | > 10 µM | > 10 µM
O=C(O)CNC(=O)c1nc(Cl)c2ccccc2c1O [FG-2216] | 0 | 0 | 0 | 0 | 0 | 101% | 98% | 96.4% | 99.1% | 95.3% | 107% | 98% | 101% | 91.5% | 93.2% | 100% | 99.4% | 104% | 102% | 99.5% | 98.2% | 102% | 99.3% | 94.1% | 93.5% | 106% | 98.5% | 96.6% | 103% | 103% | > 10 µM | > 10 µM | > 10 µM | > 10 µM | > 10 µM
O=C(NCCO)c1cccc(-c2cc(Nc3ccc(OC(F)(F)F)cc3)ncn2)c1 [GNF-5] | 0 | 0 | 0 | 0.4 | 0 | 99.5% | 95.2% | 98.2% | 98.1% | 89.4% | 95.7% | 101% | 98.5% | 106% | 98.5% | 91.5% | 97.4% | 94.6% | 105% | 102% | 94.1% | 92.7% | 95.3% | 107% | 78.5% | 102% | 99.4% | 89.8% | 107% | 94% | > 10 µM | > 10 µM | > 10 µM | > 10 µM | > 10 µM
Cc1ccc(Nc2ncc3c(n2)N(C)C(=O)N(c2cc(NC(=O)c4cccc(C(F)(F)F)c4)ccc2C)C3)cn1 [GNF-7] | 15.4 | 19 | 17.5 | 16.6 | 16.6 | 92.5% | 101% | 97.7% | 16.8% | 0.3% | 105% | 97.5% | 78.8% | 13.9% | 32.9% | 95.2% | 103% | 91% | 12% | 11.3% | 93.8% | 92.1% | 89.3% | 19.3% | 18.7% | 112% | 103% | 87.5% | 20.8% | 23.7% | 0.501 µM | 0.156 µM | 0.235 µM | 0.21 µM | 0.195 µM
O=C(O)CCNc1cc(N2CCc3ccccc3CC2)nc(-c2ccccn2)n1 [GSK-J1] | 0 | 0 | 0 | 0 | 0 | 109% | 89.9% | 113% | 101% | 91.3% | 90.4% | 100% | 91.9% | 98.6% | 102% | 102% | 94.8% | 96.2% | 95.2% | 102% | 91.6% | 92.4% | 100% | 99.7% | 104% | 97.5% | 93.3% | 97.9% | 104% | 111% | > 10 µM | > 10 µM | > 10 µM | > 10 µM | > 10 µM
CCOC(=O)c1c(/C(C#N)=C\N)c2ccc(Cl)c(Cl)c2n1C [KH-CB19] | 0 | 0 | 0 | 0 | 0 | 99.8% | 105% | 98.7% | 102% | 93.2% | 102% | 99.6% | 103% | 96.5% | 107% | 96.2% | 104% | 98.4% | 103% | 92% | 101% | 93.6% | 103% | 99.2% | 92.4% | 98.2% | 97.7% | 96.6% | 101% | 101% | > 10 µM | > 10 µM | > 10 µM | > 10 µM | > 10 µM
O=C(Cc1ccc(-c2ccc(OCCN3CCOCC3)cc2)cn1)NCc1ccccc1 [KX2-391] | 14.9 | 14.3 | 15.8 | 11.2 | 10.4 | 107% | 113% | 80.8% | 34.5% | 38.5% | 97.5% | 94.8% | 96.4% | 24.5% | 19.5% | 91.7% | 93.2% | 88.3% | 24.5% | 27.2% | 102% | 92.3% | 91.7% | 45.3% | 39.2% | 96.8% | 90.8% | 82.8% | 54.5% | 42% | 0.143 µM | 0.339 µM | 0.196 µM | 0.284 µM | 0.222 µM
c1ccc(Oc2nc(NC3CCCCC3)c3[nH]cnc3n2)cc1 [MRS-3777] | 0 | 0 | 1.1 | 0 | 0 | 110% | 97.5% | 88.7% | 99.2% | 99.4% | 97.5% | 98.8% | 97.5% | 108% | 103% | 98.7% | 96.2% | 93.5% | 97.2% | 78.2% | 87% | 104% | 99.6% | 109% | 100% | 92.7% | 95.7% | 102% | 104% | 101% | > 10 µM | > 10 µM | > 10 µM | > 10 µM | > 10 µM
c1ccc2sc(SNC3CCCCC3)nc2c1 [N-cyclohexyl-2-benzothiazolesulfenamide] | 0 | 0 | 0 | 0 | 1.6 | 97.5% | 105% | 84.2% | 97.4% | 100% | 95.1% | 95% | 100% | 96.6% | 100% | 110% | 106% | 100% | 107% | 87.1% | 92.5% | 102% | 116% | 101% | 105% | 105% | 99.6% | 101% | 84% | 94.7% | > 10 µM | > 10 µM | > 10 µM | > 10 µM | > 10 µM
C=CCN1CC[C@]23c4c5ccc(O)c4O[C@H]2C(=O)CC[C@@]3(O)[C@H]1C5 [NALOXONE HYDROCHLORIDE] | 0 | 0 | 0 | 0 | 0 | 106% | 97.9% | 102% | 95.9% | 103% | 103% | 99.7% | 102% | 103% | 100% | 99% | 103% | 104% | 95.9% | 100% | 98% | 94.7% | 101% | 100% | 104% | 94.5% | 94.4% | 88.5% | 91% | 99.6% | > 10 µM | > 10 µM | > 10 µM | > 10 µM | > 10 µM
O=C(O)C1=CCCN(CCON=C(c2ccccc2)c2ccccc2)C1 [NNC-711] | 0 | 0 | 0 | 0 | 0 | 93.4% | 100% | 99.1% | 109% | 101% | 98.7% | 95.5% | 103% | 101% | 98.5% | 90.4% | 103% | 101% | 97.4% | 114% | 102% | 95.6% | 104% | 96% | 101% | 108% | 100% | 102% | 101% | 98.9% | > 10 µM | > 10 µM | > 10 µM | > 10 µM | > 10 µM
COc1cccc(-c2cc(F)ccc2[C@H]2Cc3nc(N)nc(C)c3C(=O)N2)n1 [NVP-HSP990] | 30 | 27.7 | 19.6 | 22.6 | 19.3 | 105% | 104% | 0.7% | 0.2% | 0.5% | 102% | 94.9% | 19.3% | 2.5% | 3.2% | 101% | 112% | 47.3% | 27.8% | 26.6% | 110% | 67.8% | 51.1% | 42.2% | 41% | 108% | 97.1% | 43.5% | 34.4% | 36.2% | 0.0343 µM | 0.0446 µM | 0.0697 µM | 0.0094 µM | 0.0427 µM
COc1cc(Nc2ncc(F)c(Nc3ccc4c(n3)NC(=O)C(C)(C)O4)n2)cc(OC)c1OC [R406] | 0.2 | 0 | 0.9 | 1.7 | 0.2 | 98.1% | 103% | 102% | 92.1% | 88.8% | 95.8% | 100% | 94.3% | 97.8% | 88.9% | 100% | 99% | 93.8% | 91% | 81.9% | 96.7% | 102% | 86.9% | 92.1% | 75.5% | 85.3% | 89.8% | 97.6% | 101% | 85.6% | > 10 µM | > 10 µM | > 10 µM | > 10 µM | > 10 µM
CC(C)=CC[C@@H](O)C1=CC(=O)c2c(O)ccc(O)c2C1=O [Shikonin] | 18 | 18.9 | 18.3 | 14.1 | 13 | 102% | 97.5% | 97.4% | 2.2% | -0.3% | 96.9% | 100% | 89.5% | 4.8% | 0.2% | 95.8% | 96.3% | 91.2% | 6.1% | -0.3% | 99.6% | 103% | 94.3% | 30.6% | 1.1% | 98.7% | 112% | 96.5% | 36.5% | 2% | 0.313 µM | 0.26 µM | 0.29 µM | 0.587 µM | 0.711 µM
